Measurements published in US20230167505A1, “CIRCULATING TUMOR DNA AS A BIOMARKER FOR LEUKEMIA TREATMENT” (Cardiff Oncology, Inc., priority 2020, published 2023).
Where two headings read alike, the source gives them in different places.

Assay: Pharmacokinetics: onvansertib plasma concentrations by LC/MS-MS
Assay type: in vivo, human
Conditions: for Cmax / Tmax / AUC(0-t) / half-life: human, plasma, oral; for AUC(0-t): read-out: AUC(0-24)
Method: Pharmacokinetics: Blood samples were collected from patients for pharmacokinetic analysis on days 1 and 5 at predose; at 0.5, 1, 2, 3, 4, 8, and 24 hours after administration of onvansertib; and once on days 8, 15, and 22. Onvansertib plasma concentrations were determined by LC/MS-MS at PRA Bioanalytical Laboratory. The pharmacokinetics parameters, including maximum plasma concentration (Cmax), time to maximum plasma concentration (tmax), half-life (t1/2), and AUC, were calculated for each patient using Phoenix WinNonlin.

[1] = 12 mg/m^2, Cycle 1 day 5, mean ± SD, 12 mg/m^2 + Decitabine, 4 patients
[2] = 12 mg/m^2, Cycle 1 day 5, mean ± SD, 12 mg/m^2 + LDAC, 3 patients
[3] = 18 mg/m^2, Cycle 1 day 5, mean ± SD, 18 mg/m^2 + Decitabine, 3 patients
[4] = 18 mg/m^2, Cycle 1 day 5, mean ± SD, 18 mg/m^2 + LDAC, 3 patients
[5] = 40 mg/m^2, Cycle 1 day 5, mean ± SD, 40 mg/m^2 + LDAC, 3 patients
[6] = 60 mg/m^2, Cycle 1 day 5, mean ± SD, 60 mg/m^2 + Decitabine, 3 patients
[7] = 60 mg/m^2, Cycle 1 day 5, mean ± SD, 60 mg/m^2 + LDAC, 5 patients
[8] = 90 mg/m^2, Cycle 1 day 5, mean ± SD, 90 mg/m^2 + Decitabine, 6 patients
[9] = Cycle 1 day 5, mean ± SD, 27 mg/m^2 + Decitabine, 3 patients
[10] = Cycle 1 day 5, mean ± SD, 27 mg/m^2 + LDAC, 3 patients
[11] = Cycle 1 day 5, mean ± SD, 40 mg/m^2 + Decitabine, 4 patients

CN1CCN(c2ccc(OC(F)(F)F)c(Nc3ncc4c(n3)-c3c(c(C(N)=O)nn3CCO)CC4)c2)CC1 [onvansertib, 1-(2-hydroxyethyl)-8-{[5-(4-methylpiperazin-1-yl)-2-(trifluoromethoxy)phenyl]amino}-4,5-dihydro-1H-pyrazolo [4,3-h] quinazoline-3-carboxamide]
Cmax and AUC0-24 versus dose (both arms, 12-90 mg/m^2): increased proportionally with the administrated dose
Cmax [1]: 163 ± 90 nM
Tmax [1]: 2.5 ± 0.6 h
AUC(0-t) [1]: 2.27 µM·h
half-life (12 mg/m^2, Cycle 1 day 5, mean ± SD, 12 mg/m^2 + Decitabine, 4 patients, read-out: t1/2 (converted)): 26 ± 16 h
Cmax [2]: 153 ± 84 nM
Tmax [2]: 2 ± 1 h
AUC(0-t) [2]: 2.15 µM·h
half-life (12 mg/m^2, Cycle 1 day 5, mean ± SD, 12 mg/m^2 + LDAC, 3 patients, read-out: t1/2 (converted)): 32 ± 21 h
Cmax [3]: 230 ± 129 nM
Tmax [3]: 2.7 ± 0.6 h
AUC(0-t) [3]: 3.38 µM·h
half-life (18 mg/m^2, Cycle 1 day 5, mean ± SD, 18 mg/m^2 + Decitabine, 3 patients, read-out: t1/2 (converted)): 21 ± 7 h
Cmax [4]: 109 ± 39 nM
Tmax [4]: 3 ± 1 h
AUC(0-t) [4]: 1.73 µM·h
half-life (18 mg/m^2, Cycle 1 day 5, mean ± SD, 18 mg/m^2 + LDAC, 3 patients, read-out: t1/2 (converted)): 33 ± 18 h
half-life (40 mg/m^2, Cycle 1 day 5, mean ± SD, 40 mg/m^2 + Decitabine, 4 patients, read-out: t1/2 (converted)): 25 ± 15 h
Cmax [5]: 350 ± 104 nM
Tmax [5]: 1.7 ± 1.2 h
AUC(0-t) [5]: 4.27 µM·h
half-life (40 mg/m^2, Cycle 1 day 5, mean ± SD, 40 mg/m^2 + LDAC, 3 patients, read-out: t1/2 (converted)): 16 ± 7 h
Cmax [6]: 1040 nM
Tmax [6]: 3.3 ± 1.2 h
AUC(0-t) [6]: 16.3 µM·h
half-life (60 mg/m^2, Cycle 1 day 5, mean ± SD, 60 mg/m^2 + Decitabine, 3 patients, read-out: t1/2 (converted)): 47 ± 8 h
Cmax [7]: 905 ± 330 nM
Tmax [7]: 2.4 ± 1.1 h
AUC(0-t) [7]: 12.7 µM·h
half-life (60 mg/m^2, Cycle 1 day 5, mean ± SD, 60 mg/m^2 + LDAC, 5 patients, read-out: t1/2 (converted)): 37 ± 13 h
Cmax [8]: 1310 nM
AUC(0-t) [8]: 21.8 µM·h
half-life (90 mg/m^2, Cycle 1 day 5, mean ± SD, 90 mg/m^2 + Decitabine, 6 patients, read-out: t1/2 (converted)): 30 ± 11 h
Cmax [9]: 4110 ± 118 nM
Tmax [9]: 2 ± 1.7 h
AUC(0-t) [9]: 5.42 µM·h
half-life (Cycle 1 day 5, mean ± SD, 27 mg/m^2 + Decitabine, 3 patients, read-out: t1/2 (converted)): 16 ± 6 h
Cmax [10]: 340 ± 219 nM
Tmax [10]: 2.7 ± 1.5 h
AUC(0-t) [10]: 4.47 µM·h
half-life (Cycle 1 day 5, mean ± SD, 27 mg/m^2 + LDAC, 3 patients, read-out: t1/2 (converted)): 18 ± 5 h
Cmax [11]: 539 ± 228 nM
Tmax [11]: 3.3 ± 1 h
AUC(0-t) [11]: 8.05 µM·h
Tmax (day 5 of cycle 1, across doses and arms): 1.7 to 3.3 h
half-life (day 5 of cycle 1, all patients, read-out: median half-life (t1/2) (converted)): 26.4 h
half-life (day 5 of cycle 1, all patients, read-out: range of half-life (t1/2)): 16 to 46.5 h
